From US12582650B2, “IRAK4 kinase inhibitor and preparation method therefor” (ZHUHAI YUFAN BIOTECHNOLOGIES CO., LTD, priority 2019, dated 2026)

molecular target: T1, IRAK4 (Homo sapiens, UniProt Q9NWZ3); assay: Enzymatic experiment for IRAK4 kinase inhibitor (HTRF KinEASE-STK, phosphorylation of STK1); format: biochemical; conditions: 6 nM IRAK4, 0.4 uM STK1, 80 uM ATP, 37° C. for 90 min, read-out: Relative IC50
T1 construct: purchased Carna 09-145
T1 sequence (Q9NWZ3 1-460): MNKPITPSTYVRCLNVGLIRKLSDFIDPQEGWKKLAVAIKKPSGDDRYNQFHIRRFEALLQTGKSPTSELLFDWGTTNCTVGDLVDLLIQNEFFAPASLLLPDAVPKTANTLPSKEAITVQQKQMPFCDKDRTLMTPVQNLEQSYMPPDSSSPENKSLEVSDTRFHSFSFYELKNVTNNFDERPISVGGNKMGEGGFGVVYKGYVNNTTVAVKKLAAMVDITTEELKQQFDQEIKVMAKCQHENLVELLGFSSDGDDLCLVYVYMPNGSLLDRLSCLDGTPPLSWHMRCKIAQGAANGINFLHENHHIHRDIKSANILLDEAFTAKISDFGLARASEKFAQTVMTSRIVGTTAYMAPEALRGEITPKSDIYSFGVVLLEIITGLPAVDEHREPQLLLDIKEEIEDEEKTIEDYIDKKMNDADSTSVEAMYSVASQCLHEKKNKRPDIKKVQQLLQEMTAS
Procedure: Experimental materials: IRAK4 recombinant human […], purchased from Carna (Cat #09-145); ATP, purchased from Sigma (Cat #A7699-5G); Compound 26, purchased from Merck Millipore (Cat #531237); and HTRF KinEASE-STK Si kit, purchased from Cisbio (Cat #62ST1PEC).
Experimental method: Phosphorylation of STK1 can be detected using an HTRF assay kit. The experimental reaction was carried out in a 384-well plate (Greiner, Cat #784075) with a total reaction system of 20 uL. The reaction system mainly comprised 1× kinase buffer, […], […], 0.4 uM STK1 and 80 uM ATP. The target product prepared in Example 1 was serially diluted with DMSO at 10 concentration points, and transferred to an experimental assay plate at 100 nL. The reaction was started after 6 nM IRAK4 was added and stopped by adding a detection reagent (0.25×STK Antibody-Cryptate, 25 nM Streptavidin-XL665) after being in process at 37° C. for 90 min. After standing at room temperature for 60 min, an FRET signal was read on a Spark 10M or envision plate reader. (HTRF 665/615=signal value at 665 nm/signal value at 615 nm).
Data analysis: signal ratio (665/615) was converted to a percent rejection. Inhibition %=(max−sample)/(max−min)×100. “min” represents a ratio of signal values (665/615) for control well without enzyme, and “max” represents a ratio of signal values (665/615) for control well with […]. […] values for compounds were calculated by XLFit in the Excel. Y=Bottom+(Top−Bottom)/(1+(IC50/X)^HillSlope) Equation: […]

Row | SMILES | IC50
1 | Cn1c(C2CCCCC2)nc2c3c(C4CCOCC4)c[nH]c3ncc21 | 100 to 1000 nM
2 | CC(=O)N1CCC(c2cn3c(cnc4[nH]cc(C5CCOCC5)c43)n2)CC1 | > 1000 nM
3 | CCN1CCC(c2cn3c(cnc4[nH]cc(C5CCOCC5)c43)n2)CC1 | 100 to 1000 nM
4 | CN1CCC(c2cn3c(cnc4[nH]cc(C5CCOCC5)c43)n2)CC1 | 100 to 1000 nM
5 | c1[nH]c2ncc3nc(C4CCC(N5CCOCC5)CC4)cn3c2c1C1CCOCC1 (centres unmarked) | 100 to 1000 nM
6 | CN1CCC(c2cn3c(cnc4[nH]cc(C5CCC(C(N)=O)CC5)c43)n2)CC1 (centres unmarked) | > 1000 nM
7 | c1[nH]c2ncc3nc(C4CCN(C5COC5)CC4)cn3c2c1C1CCOCC1 | > 1000 nM
8 | c1[nH]c2ncc3nc(C4CCOCC4)cn3c2c1C1CCOCC1 | 100 to 1000 nM
9 | CN1CCC(c2cn3c(cnc4[nH]cc(C5CCOCC5)c43)n2)C1 (centres unmarked) | 100 to 1000 nM

More lines, now with the values ahead:

Row | IC50 | SMILES
10 | 100 to 1000 nM | c1[nH]c2ncc3[nH]c(C4CCCCC4)nc3c2c1C1CCOCC1
11 | 100 to 1000 nM | CC1CC(c2cn3c(cnc4[nH]cc(C5CCOCC5)c43)n2)CCN1 (centres unmarked)
12 | < 100 nM | c1[nH]c2ncc3nc(C4CCCCC4)cn3c2c1C1CCOCC1
13 | < 100 nM | CC1CNCCC1c1cn2c(cnc3[nH]cc(C4CCOCC4)c32)n1 (centres unmarked)
14 | < 100 nM | c1[nH]c2ncc3nc(C4CCC5(CC4)CNC5)cn3c2c1C1CCOCC1
15 | < 100 nM | NC1CCC(c2nc3c(cnc4[nH]cc(C5CCOCC5)c43)[nH]2)CC1 (centres unmarked) [drawing 311]
16 | < 100 nM | NC1CCC(c2nc3c(cnc4[nH]cc(C5CCOCC5)c43)[nH]2)CC1 (centres unmarked) [drawing 312]
17 | < 100 nM | c1[nH]c2ncc3nc(C4CCCNC4)cn3c2c1C1CCOCC1 (centres unmarked)
18 | < 100 nM | NC1CCC(c2cn3c(cnc4[nH]cc(C5CCOCC5)c43)n2)CC1 (centres unmarked)
19 | < 100 nM | CN(C)C1CCC(c2cn3c(cnc4[nH]cc(C5CCOCC5)c43)n2)CC1 (centres unmarked)
20 | < 100 nM | c1[nH]c2ncc3nc(C4CCNCC4)cn3c2c1C1CCOCC1
